From patent US12642759B2, “Cosmetic composition for improving skin containing extracts of polygala tenuifolia, angelica dahurica and elsholtzia splendens” (SOOY-K CO., LTD., priority 2023, dated 2026)

Assays:
[1] = ABTS radical scavenging assay; type: biochemical; conditions: concentration 50 μg/mL, positive control
Procedure: Antioxidant activity was measured using […] (ABTS) radical with reference to the Van den Berg method. This method uses the principle that ABTS+ radical, which has a blue-green color, is made to be transparent by antioxidants. 7 mM ABTS and 2.4 mM potassium persulfate were mixed and left at room temperature in the dark for 24 hours to form ABTS. Absorbance was measured at 734 nm, and the material was used for the experiment after adjusting the absorbance to 0.7±0.1. 100 μL of ABTS working solution and 100 μL of samples of each concentration were mixed and reacted in the dark for 10 minutes. Then, the absorbance was measured at […] and the radical scavenging activity was calculated as shown in Equation 2 below. Ascorbic acid, an antioxidant, was used as a positive control, and an ABTS solution which was not treated with a sample was used as a negative control. [formula] 1-5. Cell Culture

[2] = DPPH radical scavenging assay; type: biochemical; conditions: concentration 50 μg/mL, positive control
Procedure: Antioxidant efficacy was measured by DPPH radical scavenging activity based on the Blois' method. This assay is one of the generation methods. DPPH is purple in the radical state, and when reduced by receiving electrons, it changes its color to yellow (DPPH-H). 100 μL of 0.2 mM DPPH solution and 80 μL of samples of each concentration were mixed in a 96-well plate, reacted for 30 minutes at room temperature in the dark, and then absorbance was measured at 517 nm to calculate radical scavenging activity according to Equation 1 below. Ascorbic acid, an antioxidant, was used as a positive control, and a DPPH solution which was not treated with a sample was used as a negative control. [formula] ABTS Radical Scavenging Assay

Staphylococcus aureus = assay: Antibacterial activity, paper disc method; type: cell-based; conditions: 4 mg/mL, positive control, 8 mm paper disc, read-out: Clear zone
Procedure: The antibacterial effect was measured against Staphylococcus aureus (S. aureus). The paper disc method was used to measure the antibacterial activity of the samples. Each strain cultured on a solid plate medium was taken by a platinum loop, then inoculated into a 4 mL liquid medium, and cultured for 20 hours to activate it. Then, 500 μL of the strain was inoculated into 3 mL of liquid medium and cultured for 4 hours. The strain was inoculated onto a solid plate medium so that the number of bacteria was 1×10^6-5×10^6/mL, and then spread evenly using a spreader. Each sample was prepared according to the concentrations, and 50 μL of the sample was absorbed into a paper disc (Toyo, Japan) with a diameter of 8 mm. The paper disc was placed on a solid plate medium inoculated with the strain and cultured at 37° C. for 20 hours. Then, the diameter of the clear zone around the disc was measured. Disc diffusion test is performed by placing a disc into which a sample was absorbed on an agar plate medium inoculated with bacteria and culturing them, and then measuring the diameter of the inhibition zone (clear zone) of the sample that diffused around the disc as much as it inhibited the growth of the bacteria.

| Structure (SMILES) | ABTS radical scavenging activity (antioxidant activity) [1] [%] | DPPH radical scavenging activity (antioxidant activity) [2] [%] | zone of inhibition at 4000 µg/mL (Staphylococcus aureus) [mm] |
| --- | --- | --- | --- |
| O=C1O[C@H]([C@@H](O)CO)C(O)=C1O [Ascorbic acid, ascorbic acid] | 99.68±0.21 | 87.21±0.56 | – |
| COC(=O)c1ccc(O)cc1 [Methyl paraben] | – | – | 8.5 |
